According to patent US9695154B2, “Heteroaryl inhibitors of sumo activating enzyme” (MILLENNIUM PHARMACEUTICALS, INC., priority 2013, dated 2017):

Biological target: T1, recombinant human SAE enzyme (Homo sapiens, UniProt Q9UBT2)
T1 sequence (Q9UBT2 1-640): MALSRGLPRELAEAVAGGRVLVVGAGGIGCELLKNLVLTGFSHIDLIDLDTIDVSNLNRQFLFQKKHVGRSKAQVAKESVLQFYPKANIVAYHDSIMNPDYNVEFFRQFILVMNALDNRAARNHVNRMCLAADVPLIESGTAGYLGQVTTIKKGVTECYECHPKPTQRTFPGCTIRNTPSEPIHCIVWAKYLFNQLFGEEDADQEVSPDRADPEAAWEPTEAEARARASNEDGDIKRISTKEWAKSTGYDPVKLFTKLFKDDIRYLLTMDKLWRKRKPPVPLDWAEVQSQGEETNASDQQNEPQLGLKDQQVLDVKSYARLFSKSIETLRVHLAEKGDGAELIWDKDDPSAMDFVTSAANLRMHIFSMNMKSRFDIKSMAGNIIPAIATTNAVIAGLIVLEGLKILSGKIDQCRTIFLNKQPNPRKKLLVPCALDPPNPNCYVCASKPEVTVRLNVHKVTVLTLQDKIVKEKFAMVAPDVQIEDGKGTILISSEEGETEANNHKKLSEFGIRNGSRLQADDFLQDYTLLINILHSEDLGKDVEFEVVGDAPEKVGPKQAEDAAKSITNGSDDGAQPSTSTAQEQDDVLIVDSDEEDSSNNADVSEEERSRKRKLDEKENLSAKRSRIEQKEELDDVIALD
T1 sequence (Q9UBE0 1-346 partner): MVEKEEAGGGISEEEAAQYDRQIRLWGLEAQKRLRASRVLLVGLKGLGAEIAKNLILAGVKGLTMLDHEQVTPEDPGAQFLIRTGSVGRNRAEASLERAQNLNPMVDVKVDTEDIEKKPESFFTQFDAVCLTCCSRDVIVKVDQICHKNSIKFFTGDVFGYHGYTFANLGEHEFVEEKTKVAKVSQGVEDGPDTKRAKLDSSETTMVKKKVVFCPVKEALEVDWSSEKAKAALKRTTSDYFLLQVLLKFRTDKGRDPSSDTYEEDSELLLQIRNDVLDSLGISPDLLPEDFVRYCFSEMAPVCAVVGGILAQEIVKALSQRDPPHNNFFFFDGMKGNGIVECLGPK
Assay: SAE HTRF Enzyme Assay
Format: biochemical
Settings: for IC50: class symbols A-C; for inhibition at 0.111 µM: compound concentration 0.111 μM, read-out: Percent Inhibition
In short: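 Measured as FRET after a 2 h antibody step: SAE (0.11 nM) thioester transfer of Sumo-Flag to Ubc9-GST, 0.5 μM ATP, 24° C for 105 min, quenched with 20 mM EDTA. Output is IC50 or percent inhibition at a single concentration.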

| SMILES | IC50 [µM] | inhibition at 0.111 µM [%] |
| --- | --- | --- |
| NS(=O)(=O)OC[C@H]1C[C@@H](Nc2ncncc2C(=O)c2ccn(Cc3ccc(Cl)c(Cl)c3)n2)C[C@@H]1O [Compound I-58, {(1R,2S,4R)-4-[(5-{[1-(3,4-dichlorobenzyl)-1H-pyrazol-3-yl]carbonyl}pyrimidin-4-yl)amino]-2-hydroxycyclopentyl}methyl sulfamate] | < 0.01 | 88 |
| NS(=O)(=O)OC[C@H]1C[C@@H](Nc2ncncc2C(=O)c2ccn(CC#CCC3CCCC3)n2)C[C@@H]1O [Compound I-59, {(1R,2S,4R)-4-[(5-{[1-(4-cyclopentylbut-2-yn-1-yl)-1H-pyrazol-3-yl]carbonyl}pyrimidin-4-yl)amino]-2-hydroxycyclopentyl}methyl sulfamate] | 0.01 to 0.1 | 70 |
| CC(C)(O)c1cccc(Cn2ccc(C(=O)c3cncnc3N[C@@H]3C[C@H](COS(N)(=O)=O)[C@@H](O)C3)n2)c1 [Compound I-60, [(1R,2S,4R)-2-hydroxy-4-{[5-({1-[3-(2-hydroxypropan-2-yl)benzyl]-1H-pyrazol-3-yl}carbonyl)pyrimidin-4-yl]amino}cyclopentyl]methyl sulfamate] | 0.01 to 0.1 | 91 |
| NS(=O)(=O)OC[C@H]1C[C@@H](Nc2ncncc2C(=O)c2cc(Cl)n(Cc3cccc(Cl)c3)c2)[C@@H](F)[C@@H]1O [Compound I-61] | < 0.01 | 99 |
| NS(=O)(=O)OC[C@H]1C[C@@H](Nc2ncncc2C(=O)c2ccn(Cc3ccc(F)cc3F)n2)C[C@@H]1O [Compound I-62, {(1R,2S,4R)-4-[(5-{[1-(2,4-difluorobenzyl)-1H-pyrazol-3-yl]carbonyl}pyrimidin-4-yl)amino]-2-hydroxycyclopentyl}methyl sulfamate] | < 0.01 | 96 |
| COc1ncccc1Cn1ccc(C(=O)c2cncnc2N[C@@H]2C[C@H](COS(N)(=O)=O)[C@@H](O)C2)n1 [Compound I-63, [(1R,2S,4R)-2-hydroxy-4-{[5-({1-[(2-methoxypyridin-3-yl)methyl]-1H-pyrazol-3-yl}carbonyl)pyrimidin-4-yl]amino}cyclopentyl]methyl sulfamate] | 0.01 to 0.1 | 87 |
| CC(C)(C)c1cccc(Cn2ccc(C(=O)c3cncnc3N[C@@H]3C[C@H](COS(N)(=O)=O)[C@@H](O)C3)n2)c1 [Compound I-64, {(1R,2S,4R)-4-[(5-{[1-(3--tert-butylbenzyl)-1H-pyrazol-3-yl]carbonyl}pyrimidin-4-yl)amino]-2-hydroxycyclopentyl}methyl sulfamate] | 0.01 to 0.1 | 91 |
| Cc1cc(C(=O)c2cncnc2N[C@@H]2C[C@H](COS(N)(=O)=O)[C@@H](O)C2)nn1Cc1ccccc1 [Compound I-66, [(1R,2S,4R)-4-({5-[(1-benzyl-5-methyl-1H-pyrazol-3-yl)carbonyl]pyrimidin-4-yl}amino)-2-hydroxycyclopentyl]methyl sulfamate] | < 0.01 | 98 |
| NS(=O)(=O)OC[C@H]1C[C@@H](Nc2ncncc2C(=O)c2ccn(Cc3cccc(NC(=O)CCl)c3)n2)[C@H](O)[C@@H]1O [Compound I-67, [(1R,2R,3S,4R)-4-({5-[(1-{3-[(chloroacetyl)amino]benzyl}-1H-pyrazol-3-yl)carbonyl]pyrimidin-4-yl}amino)-2,3-dihydroxycyclopentyl]methyl sulfamate] | < 0.01 | 94 |
| NS(=O)(=O)OC[C@H]1C[C@@H](Nc2ncncc2C(=O)c2ccn(Cc3cccc(I)c3)c2)C[C@@H]1O [Compound I-68, {(1R,2S,4R)-2-hydroxy-4-[(5-{[1-(3-iodobenzyl)-1H-pyrrol-3-yl]carbonyl}pyrimidin-4-yl)amino]cyclopentyl}methyl sulfamate] | < 0.01 | 99 |
| NS(=O)(=O)OC[C@H]1C[C@@H](Nc2ncncc2C(=O)c2ccn(Cc3ccc(C(F)(F)F)cc3C(F)(F)F)n2)C[C@@H]1O [Compound I-69, [(1R,2S,4R)-4-{[5-({1-[2,4-bis(trifluoromethyl)benzyl]-1H-pyrazol-3-yl}carbonyl)pyrimidin-4-yl]amino}-2-hydroxycyclopentyl]methyl sulfamate] | 0.1 to 1 | 39 |
| NS(=O)(=O)OC[C@H]1C[C@@H](Nc2ncncc2C(=O)c2ccn(Cc3cc(Cl)ccn3)n2)[C@H](O)[C@@H]1O [Compound I-70, [(1R,2R,3S,4R)-4-{[5-({1-[(4-chloropyridin-2-yl)methyl]-1H-pyrazol-3-yl}carbonyl)pyrimidin-4-yI]amino}-2,3-dihydroxycyclopentyl]methyl sulfamate] | < 0.01 | 99 |
| Cc1cc(C(=O)c2cncnc2N[C@@H]2C[C@H](COS(N)(=O)=O)[C@@H](O)[C@@H]2F)cn1Cc1cccc(Br)c1 [Compound I-71, {(1R,2R,3R,4R)-4-[(5-{[1-(3-bromobenzyl)-5-methyl-1H-pyrrol-3-yl]carbonyl}pyrimidin-4-yl)amino]-3-fluoro-2-hydroxycyclopentyl}methyl sulfamate] | < 0.01 | 100 |
| NS(=O)(=O)OC[C@H]1C[C@@H](Nc2ncncc2C(=O)c2ccn(Cc3ccc(F)c(Br)c3)n2)C[C@@H]1O [Compound I-72, {(1R,2S,4R)-4-[(5-{[1-(3-bromo-4-fluorobenzyl)-1H-pyrazol-3-yl]carbonyl}pyrimidin-4-yl)amino]-2-hydroxycyclopentyl}methyl sulfamate] | < 0.01 | 100 |
| NS(=O)(=O)OC[C@H]1C[C@@H](Nc2ncncc2C(=O)c2ccn(Cc3cnc(C(F)(F)F)s3)c2)C[C@@H]1O [Compound I-73, [(1R,2S,4R)-2-hydroxy-4-({5-[(1-{[2-(trifluoromethyl)-1,3-thiazol-5-yl]methyl}-1H-pyrrol-3-yl)carbonyl]pyrimidin-4-yl}amino)cyclopentyl]methyl sulfamate] | < 0.01 | 94 |
| COC(C)(C)C#CCn1ccc(C(=O)c2cncnc2N[C@@H]2C[C@H](COS(N)(=O)=O)[C@@H](O)[C@@H]2F)c1 [Compound I-75, {(1R,2R,3R,4R)-3-fluoro-2-hydroxy-4-[(5-{[1-(4-methoxy-4-methylpent-2-yn-1-yl)-1H-pyrrol-3-yl]carbonyl}pyrimidin-4-yl)amino]cyclopentyl}methyl sulfamate] | 0.01 to 0.1 | 68 |
| CC(C)(c1ccccc1)n1ccc(C(=O)c2cncnc2N[C@@H]2C[C@H](COS(N)(=O)=O)[C@@H](O)C2)c1 [Compound I-76, {(1R,2S,4R)-2-hydroxy-4-[(5-{[1-(2-phenylpropan-2-yl)-1H-pyrrol-3-yl]carbonyl}pyrimidin-4-yl)amino]cyclopentyl}methyl sulfamate] | 0.01 to 0.1 | 80 |
| NS(=O)(=O)OC[C@H]1C[C@@H](Nc2ccncc2C(=O)c2ccn(Cc3ccc(Cl)c(Cl)c3)n2)C[C@@H]1O [Compound I-78, {(1R,2S,4R)-4-[(3-{[1-(3,4-dichlorobenzyl)-1H-pyrazol-3-yl]carbonyl}pyridin-4-yl)amino]-2-hydroxycyclopentyl}methyl sulfamate] | < 0.01 | 97 |
| Cn1cccc(Cn2ccc(C(=O)c3cncnc3N[C@@H]3C[C@H](COS(N)(=O)=O)[C@@H](O)C3)n2)c1=O [Compound I-80, [(1R,2S,4R)-2-hydroxy-4-{[5-({1-[(1-methyl-2-oxo-1,2-dihydropyridin-3-yl)methyl]-1H-pyrazol-3-yl}carbonyl)pyrimidin-4-yl]amino}cyclopentyl]methyl sulfamate] | < 0.01 | 96 |
| NS(=O)(=O)OC[C@H]1C[C@@H](Nc2ccncc2C(=O)c2ccn(Cc3cccc(Cl)c3)n2)[C@H](O)[C@@H]1O [Compound I-81, {(1R,2R,3S,4R)-4-[(3-{[1-(3-chlorobenzyl)-1H-pyrazol-3-yl]carbonyl}pyridin-4-yl)amino]-2,3-dihydroxycyclopentyl}methyl sulfamate] | < 0.01 | 98 |
| NS(=O)(=O)OC[C@H]1C[C@@H](Nc2ncncc2C(=O)c2ccn(CC3CCCCC3)n2)[C@H](O)[C@@H]1O [Compound I-82, {(1R,2R,3S,4R)-4-[(5-{[1-(cyclohexylmethyl)-1H-pyrazol-3-yl]carbonyl}pyrimidin-4-yl)amino]-2,3-dihydroxycyclopentyl}methyl sulfamate] | < 0.01 | 96 |
